Laboratory results taken from PubChem BioAssay (NCI).
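Dose response: 5 concentrations. Exposure: 48 h. Format: 96-well plates. Endpoint: linear interpolation; highest concentration if not reached. At the GI50, growth is halved. TGI is the concentration that stops growth completely.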

Key:
Test in all cases: DTP human tumour cell line panel, 48 h
HOP-62 NSCLC = tested on: HOP-62 NSCLC
MOLT-4 leukemia = tested on: MOLT-4 leukemia
OVCAR-8 ovarian = tested on: OVCAR-8 ovarian
U251 CNS = tested on: U251 CNS
A549 NSCLC = tested on: A549 NSCLC
NCI-H522 lung = tested on: NCI-H522 lung
OVCAR-5 ovarian = tested on: OVCAR-5 ovarian
NCI/ADR-RES ovarian = tested on: NCI/ADR-RES ovarian
NCI-H226 lung = tested on: NCI-H226 lung
M14 melanoma = tested on: M14 melanoma
NCI-H460 lung = tested on: NCI-H460 lung
KM12 colon = tested on: KM12 colon
SF-539 CNS = tested on: SF-539 CNS
SNB-75 CNS = tested on: SNB-75 CNS
A498 renal = tested on: A498 renal
RXF 393 renal = tested on: RXF 393 renal
HL-60(TB) leukemia = tested on: HL-60(TB) leukemia
CAKI-1 renal = tested on: CAKI-1 renal
LOX IMVI melanoma = tested on: LOX IMVI melanoma
SR leukemia = tested on: SR leukemia
UACC-62 melanoma = tested on: UACC-62 melanoma
RPMI-8226 leukemia = tested on: RPMI-8226 leukemia
SF-295 CNS = tested on: SF-295 CNS
SK-MEL-5 melanoma = tested on: SK-MEL-5 melanoma
HCT-116 colon = tested on: HCT-116 colon
TK-10 renal = tested on: TK-10 renal
OVCAR-4 ovarian = tested on: OVCAR-4 ovarian
EKVX NSCLC = tested on: EKVX NSCLC
UACC-257 melanoma = tested on: UACC-257 melanoma
SK-MEL-2 melanoma = tested on: SK-MEL-2 melanoma
SK-OV-3 ovarian = tested on: SK-OV-3 ovarian
MDA-MB-435 = tested on: MDA-MB-435
MCF7 breast = tested on: MCF7 breast
DU-145 prostate = tested on: DU-145 prostate
HCT-15 colon = tested on: HCT-15 colon
BT-549 breast = tested on: BT-549 breast
ACHN renal = tested on: ACHN renal
SNB-19 CNS = tested on: SNB-19 CNS
SF-268 CNS = tested on: SF-268 CNS
T-47D breast = tested on: T-47D breast
HT29 colon = tested on: HT29 colon
HOP-92 NSCLC = tested on: HOP-92 NSCLC
MALME-3M melanoma = tested on: MALME-3M melanoma
SW-620 colon = tested on: SW-620 colon
HS 578T breast = tested on: HS 578T breast
CCRF-CEM leukemia = tested on: CCRF-CEM leukemia
786-0 renal = tested on: 786-0 renal
COLO 205 colon = tested on: COLO 205 colon
PC-3 prostate = tested on: PC-3 prostate
IGROV1 ovarian = tested on: IGROV1 ovarian
HCC-2998 colon = tested on: HCC-2998 colon
SK-MEL-28 melanoma = tested on: SK-MEL-28 melanoma
MDA-MB-231 breast = tested on: MDA-MB-231 breast
SN12C renal = tested on: SN12C renal
UO-31 renal = tested on: UO-31 renal
K-562 leukemia = tested on: K-562 leukemia

**Q.** CCNC(=O)Oc1ccc(/C(=C(/C)c2ccc(Cl)cc2)c2ccc(OCCN3CCCCCC3)cc2)cc1 was tested. Which GI50 (HOP-62 NSCLC) did it give?
**A.** 1550 nM

**Q.** And the TGI (HOP-62 NSCLC)?
**A.** 3000 nM

**Q.** What about the GI50 (MOLT-4 leukemia) of the same compound?
**A.** 2100 nM

**Q.** What about the TGI (MOLT-4 leukemia) of the same compound?
**A.** 6060 nM

**Q.** And the GI50 (OVCAR-8 ovarian)?
**A.** 1780 nM

**Q.** What about the TGI (OVCAR-8 ovarian) of the same compound?
**A.** 3400 nM

**Q.** And the GI50 (U251 CNS)?
**A.** 1490 nM

**Q.** And the TGI (U251 CNS)?
**A.** 2860 nM

**Q.** And the GI50 (A549 NSCLC)?
**A.** 1700 nM

**Q.** And the TGI (A549 NSCLC)?
**A.** 3270 nM

**Q.** What about the GI50 (NCI-H522 lung) of the same compound?
**A.** 1780 nM

**Q.** What about the TGI (NCI-H522 lung) of the same compound?
**A.** 3460 nM

**Q.** And the GI50 (OVCAR-5 ovarian)?
**A.** 1990 nM

**Q.** What about the TGI (OVCAR-5 ovarian) of the same compound?
**A.** 4380 nM

**Q.** What about the GI50 (NCI/ADR-RES ovarian) of the same compound?
**A.** 1840 nM

**Q.** And the TGI (NCI/ADR-RES ovarian)?
**A.** 3750 nM

**Q.** What about the GI50 (NCI-H226 lung) of the same compound?
**A.** 2610 nM

**Q.** And the TGI (NCI-H226 lung)?
**A.** 8200 nM

**Q.** And the GI50 (M14 melanoma)?
**A.** 1700 nM

**Q.** What about the TGI (M14 melanoma) of the same compound?
**A.** 3130 nM

**Q.** And the GI50 (NCI-H460 lung)?
**A.** 1750 nM

**Q.** What about the TGI (NCI-H460 lung) of the same compound?
**A.** 3240 nM

**Q.** What about the GI50 (KM12 colon) of the same compound?
**A.** 2630 nM

**Q.** What about the TGI (KM12 colon) of the same compound?
**A.** 6800 nM

**Q.** And the GI50 (SF-539 CNS)?
**A.** 1720 nM

**Q.** And the TGI (SF-539 CNS)?
**A.** 3140 nM

**Q.** And the GI50 (SNB-75 CNS)?
**A.** 1990 nM

**Q.** What about the TGI (SNB-75 CNS) of the same compound?
**A.** 4020 nM

**Q.** And the GI50 (A498 renal)?
**A.** 1750 nM

**Q.** What about the TGI (A498 renal) of the same compound?
**A.** 3780 nM

**Q.** And the GI50 (RXF 393 renal)?
**A.** 1460 nM

**Q.** What about the TGI (RXF 393 renal) of the same compound?
**A.** 2930 nM

**Q.** What about the GI50 (HL-60(TB) leukemia) of the same compound?
**A.** 1820 nM

**Q.** And the TGI (HL-60(TB) leukemia)?
**A.** 4450 nM

**Q.** And the GI50 (CAKI-1 renal)?
**A.** 1640 nM

**Q.** What about the TGI (CAKI-1 renal) of the same compound?
**A.** 3090 nM

**Q.** What about the GI50 (LOX IMVI melanoma) of the same compound?
**A.** 1690 nM

**Q.** And the TGI (LOX IMVI melanoma)?
**A.** 3120 nM

**Q.** What about the GI50 (SR leukemia) of the same compound?
**A.** 1350 nM

**Q.** What about the TGI (SR leukemia) of the same compound?
**A.** 4910 nM

**Q.** What about the GI50 (UACC-62 melanoma) of the same compound?
**A.** 1790 nM

**Q.** And the TGI (UACC-62 melanoma)?
**A.** 3280 nM

**Q.** What about the GI50 (RPMI-8226 leukemia) of the same compound?
**A.** 1800 nM

**Q.** What about the TGI (RPMI-8226 leukemia) of the same compound?
**A.** 3930 nM

**Q.** And the GI50 (SF-295 CNS)?
**A.** 1600 nM

**Q.** And the TGI (SF-295 CNS)?
**A.** 2970 nM

**Q.** What about the GI50 (SK-MEL-5 melanoma) of the same compound?
**A.** 1680 nM

**Q.** What about the TGI (SK-MEL-5 melanoma) of the same compound?
**A.** 3050 nM

**Q.** And the GI50 (HCT-116 colon)?
**A.** 1620 nM

**Q.** What about the TGI (HCT-116 colon) of the same compound?
**A.** 3000 nM

**Q.** And the GI50 (TK-10 renal)?
**A.** 2270 nM

**Q.** What about the TGI (TK-10 renal) of the same compound?
**A.** 6750 nM

**Q.** What about the GI50 (OVCAR-4 ovarian) of the same compound?
**A.** 1960 nM

**Q.** What about the TGI (OVCAR-4 ovarian) of the same compound?
**A.** 4550 nM

**Q.** What about the GI50 (EKVX NSCLC) of the same compound?
**A.** 1910 nM

**Q.** What about the TGI (EKVX NSCLC) of the same compound?
**A.** 4770 nM

**Q.** And the GI50 (UACC-257 melanoma)?
**A.** 1710 nM

**Q.** What about the TGI (UACC-257 melanoma) of the same compound?
**A.** 3300 nM

**Q.** And the GI50 (SK-MEL-2 melanoma)?
**A.** 1770 nM

**Q.** And the TGI (SK-MEL-2 melanoma)?
**A.** 3330 nM

**Q.** And the GI50 (SK-OV-3 ovarian)?
**A.** 1870 nM

**Q.** What about the TGI (SK-OV-3 ovarian) of the same compound?
**A.** 3700 nM

**Q.** And the GI50 (MDA-MB-435)?
**A.** 1770 nM

**Q.** What about the TGI (MDA-MB-435) of the same compound?
**A.** 3240 nM

**Q.** And the GI50 (MCF7 breast)?
**A.** 404 nM

**Q.** What about the TGI (MCF7 breast) of the same compound?
**A.** 2320 nM

**Q.** And the GI50 (DU-145 prostate)?
**A.** 2290 nM

**Q.** What about the TGI (DU-145 prostate) of the same compound?
**A.** 5370 nM

**Q.** And the GI50 (HCT-15 colon)?
**A.** 1500 nM

**Q.** And the TGI (HCT-15 colon)?
**A.** 2910 nM

**Q.** And the GI50 (BT-549 breast)?
**A.** 1740 nM

**Q.** What about the TGI (BT-549 breast) of the same compound?
**A.** 3140 nM

**Q.** And the GI50 (ACHN renal)?
**A.** 1750 nM

**Q.** What about the TGI (ACHN renal) of the same compound?
**A.** 3200 nM

**Q.** What about the GI50 (SNB-19 CNS) of the same compound?
**A.** 2500 nM

**Q.** What about the TGI (SNB-19 CNS) of the same compound?
**A.** 6880 nM

**Q.** What about the GI50 (SF-268 CNS) of the same compound?
**A.** 2200 nM

**Q.** What about the TGI (SF-268 CNS) of the same compound?
**A.** 5540 nM

**Q.** What about the GI50 (T-47D breast) of the same compound?
**A.** 1390 nM

**Q.** And the TGI (T-47D breast)?
**A.** 4190 nM

**Q.** What about the GI50 (HT29 colon) of the same compound?
**A.** 1700 nM

**Q.** And the TGI (HT29 colon)?
**A.** 3270 nM

**Q.** What about the GI50 (HOP-92 NSCLC) of the same compound?
**A.** 1410 nM

**Q.** And the TGI (HOP-92 NSCLC)?
**A.** 2860 nM

**Q.** And the GI50 (MALME-3M melanoma)?
**A.** 1780 nM

**Q.** And the TGI (MALME-3M melanoma)?
**A.** 3420 nM

**Q.** What about the GI50 (SW-620 colon) of the same compound?
**A.** 1710 nM

**Q.** And the TGI (SW-620 colon)?
**A.** 3220 nM

**Q.** What about the GI50 (HS 578T breast) of the same compound?
**A.** 1950 nM

**Q.** And the TGI (HS 578T breast)?
**A.** 4260 nM

**Q.** What about the GI50 (CCRF-CEM leukemia) of the same compound?
**A.** 1640 nM

**Q.** What about the TGI (CCRF-CEM leukemia) of the same compound?
**A.** 9810 nM

**Q.** What about the GI50 (786-0 renal) of the same compound?
**A.** 1610 nM

**Q.** What about the TGI (786-0 renal) of the same compound?
**A.** 3020 nM

**Q.** What about the GI50 (COLO 205 colon) of the same compound?
**A.** 1740 nM

**Q.** And the TGI (COLO 205 colon)?
**A.** 3180 nM

**Q.** And the GI50 (PC-3 prostate)?
**A.** 1780 nM

**Q.** What about the TGI (PC-3 prostate) of the same compound?
**A.** 3530 nM

**Q.** And the GI50 (IGROV1 ovarian)?
**A.** 1800 nM

**Q.** What about the TGI (IGROV1 ovarian) of the same compound?
**A.** 3410 nM

**Q.** What about the GI50 (HCC-2998 colon) of the same compound?
**A.** 1720 nM

**Q.** And the TGI (HCC-2998 colon)?
**A.** 3160 nM

**Q.** And the GI50 (SK-MEL-28 melanoma)?
**A.** 1740 nM

**Q.** What about the TGI (SK-MEL-28 melanoma) of the same compound?
**A.** 3180 nM

**Q.** And the GI50 (MDA-MB-231 breast)?
**A.** 1840 nM

**Q.** And the TGI (MDA-MB-231 breast)?
**A.** 3480 nM

**Q.** And the GI50 (SN12C renal)?
**A.** 1670 nM

**Q.** What about the TGI (SN12C renal) of the same compound?
**A.** 3180 nM

**Q.** What about the GI50 (UO-31 renal) of the same compound?
**A.** 1440 nM

**Q.** What about the TGI (UO-31 renal) of the same compound?
**A.** 2790 nM

**Q.** What about the GI50 (K-562 leukemia) of the same compound?
**A.** 1390 nM

**Q.** And the TGI (K-562 leukemia)?
**A.** 3950 nM
